Laboratory results from patent publication US20240279183A1, “COMPOUNDS AND PHARMACEUTICAL COMPOSITIONS FOR USE IN NEURODEGENERATIVE DISORDERS” (Universiteit Hasselt, priority 2021, published 2024).
Entries after “also recorded” stand apart in the source; their conditions may differ.

Key:
[1] = test system: Primary mouse oligodendrocyte precursor cells (OPCs); test: OPC differentiation (in vitro), O4 and MBP staining; type: cell-based; conditions: for OPC differentiation towards oligodendrocytes: nanomolar ranges
Description: Primary mouse oligodendrocyte precursor cells (OPCs) were isolated from p0 C57bl6 pups using the shake off method at day 0 (FIG. 1). […] Primary OPCs (150,000 cells/condition) were cultured and stimulated with vehicle (0.1% DMSO) or different concentration of RICE (3 nM, 10 nM, 30 nM, 100 nM, 300 nM, 1000 nM) in 0.1% DMSO. Treatment was repeated on day 2 and day 4, applying a 40% medium change. Cells were fixated at day 6 and stained for O4, a late OPC marker, and MBP, an oligodendrocyte marker. […] The increased expression of O4 declined from 100 nM RICE onwards.

[2] = test system: Male wild type C57bl6 mice fed cuprizone; test: Visual evoked potentials after cuprizone diet (in vivo); design: species or system mouse; conditions: 0.1 mg/kg or 0.3 mg/kg subcutaneous twice a day, remyelination phase, compared to vehicle
Description: Male wild type C57bl6 mice were fed regular chow (n=6) or 0.3% (w/w)cuprizone (n=21) for 6 weeks to […]. Afterwards, cuprizone was removed and recovery was allowed. Two days before ceasing the cuprizone diet, until the end of the experiment, animals received twice a day subcutaneous injections consisting of 0.1% DMSO in 0.5% methylcellulose solution with either vehicle (no cuprizone and vehicle group; n=6 and n=8 respectively), 0.1 mg/kg RICE (n=7) or 0.3 mg/kg RICE (n=6) (FIG. 3). […] After either three or four days after ceasing the cuprizone diet, visual evoked potential were measured to evaluate optic tract and nerve signaling (groups equally divided over testing days). Epidermal VEP was recorded in response to flash stimulation (3 trains of 20 stimuli, 10 us duration, 1 Hz frequency) from both eyes. […] A one-way ANOVA with Kruskall Wallis multiple comparison test was conducted to evaluate statistical significances (*p≤0.05; **p<0.01, ****p<0.001).

[3] = test system: young adult C57BL/6J-OlaHsd mice; test: Object location task (OLT), 24h intertrial interval; type: in vivo, mouse
Description: Mice received a subcutaneous injection with vehicle (0.1% DMSO in 2% Tween80 and 0.5% methylcellulose), roflumilast 0.03 mg/kg as a positive control, or RICE01 (0.00003 mg/kg-0.3 mg/kg) 3h after the first learning trial of the 24h interval OLT.

[4] = test system: Mouse cerebellar brain slices; test: Myelination in lysolecithin-demyelinated brain slices (ex vivo); type: cell-based; conditions: 1 μM, 10 days
Description: Mouse cerebellar brain slices (350 μm) were made from the cerebellum of p10 C57bl6 pups. After 4 days in culture, slices were demyelinated using 0.5 mg/ml lysolecithin (18 h) and subsequently treated for 10 days with 1 μM RICE (in 0.1% DMSO) (FIG. 2).

Oc1cc(-c2ccn(CC(O)CN3CCOCC3)n2)ccc1OC(F)F (stereo not shown) [RICE01]
MBP expression (oligodendrocyte marker) ([1]; 3-1000 nM, day 6): dose dependently increased | O4 expression (late OPC marker) ([1]; 3-1000 nM, treatment day 0, 2, 4, fixated day 6): increased with the lower concentrations | concentration from which the increased expression of O4 declined ([1]; day 6): ≥ 100 nM | concentration of maximal MBP expression ([1]; day 6): 30 nM | concentration of maximal O4 expression increase ([1]; day 6): 10 nM | OPC differentiation towards oligodendrocytes [1]: induces OPC differentiation and myelin production | OPC differentiation towards oligodendrocytes ([1]; listed as RICE): boosts OPC differentiation towards oligodendrocytes; also recorded: boosted OPC differentiation; also recorded: stimulated the differentiation of oligodendrocytes | visual evoked potential latency [2]: decreased latency times | D2 value versus zero (one-sample t-test) ([3]; 0.00003 mg/kg subcutaneous): significantly higher than zero | D2 value versus zero (one-sample t-test) ([3]; 0.0001 mg/kg subcutaneous): significantly higher than zero | d2 index compared with vehicle treatment (Dunnett's) ([3]; 0.0001 mg/kg subcutaneous): significantly higher d2 index | D2 value versus zero (one-sample t-test) ([3]; 0.0003 mg/kg subcutaneous): significantly higher than zero | D2 value versus zero (one-sample t-test) ([3]; 0.001 mg/kg subcutaneous): significantly higher than zero | D2 value versus zero (one-sample t-test) ([3]; 0.01 mg/kg subcutaneous): significantly higher than zero | D2 value versus zero (one-sample t-test) ([3]; 0.03 mg/kg subcutaneous): significantly higher than zero | D2 value versus zero (one-sample t-test) ([3]; 0.1 mg/kg subcutaneous): significantly higher than zero | d2 index compared with vehicle treatment (Dunnett's) ([3]; 0.1 mg/kg subcutaneous): significantly higher d2 index | discrimination index (D2) in the object location task ([3]; subcutaneous, 0.00003 mg/kg-0.3 mg/kg, 3h after first learning trial): increases | (re)myelination (myelination index / MBP expression) [4]: improved (re)myelination
